Measured values from patent publication US20150266864A1, “HETEROAROMATIC COMPOUNDS, METHOD FOR PREPARING THE COMPOUNDS, PHARMACEUTICAL COMPOSITIONS, USES AND METHOD FOR TREATING ACUTE AND CHRONIC PAIN” (CRISTÁLIA PRODUTOS QUÍMICOS FARMACÊUTICOS LTDA, priority 2012, published 2015).

Columns and labels:
rats subjected to SNL [1] = assay: Spinal nerve ligation (SNL) L5 model, thermal hyperalgesia; format: in vivo, rat; settings: for paw withdrawal latency, thermal hyperalgesia: after 7 days of treatment, 32.25 μmol/kg ip; for reversal of hyperalgesia signs associated with neuropathic pain: ip during 7 days, 32.25 μmol/kg
Swiss-type male mice = assay: RotaRod performance test, motor coordination; settings: for animal residence time on the rotational cylinder compared to controls: 15 minutes after administration; for Mice residence time on the rotational cylinder: 9 rpm, cut off 180 s, mean ± SEM
rats subjected to SNL [2] = assay: Spinal nerve ligation (SNL) L5 model, mechanical allodynia (digital Von Frey); format: in vivo, rat; settings: for reversal of allodynia signs associated with neuropathic pain: ip during 7 days, 32.25 μmol/kg
Swiss mice [3] = assay: Hot plate model, assay for acute pain; format: in vivo; settings: ip, 32.25 μmol/kg
Swiss mice [4] = assay: Hot plate model, assay for acute pain; format: in vivo; settings: ip, 32.25 μmol/kg, plate 52° C., compared to morphine sulfate at the same dose
Text: The antinociceptive activity (AA) of the present invention selected compounds (C3, C9, C11, C12, C13, C15 and C17) was investigated in hot plate model [Hot Plate Model LE7406, Scientific Inc.] described by Kuraishi et al. [Kuraishi, Y., Harada, Y., Aratani, S., Satoh, M., Takagi, H. Brain Research 1983.273, 245-2523]. This method is valid to evaluate the analgesic activity of substances acting on the central nervous system. Swiss mice weighing 20-25 g were placed on a metal plate heated up to 52° C. The animals were withdrawn from the hot plate at the time they lead their forepaws toward the mouth to lick, being this an indicative of pain second Le Bars et al. [Le Bars, D., Gozariu, M., Cadden, S. W. Animal models of nociception. Pharmacol. Rev. 2001, 53 (4), 597-652]. In this way, it was analyzed how long the animal, treated or not (control) with the analgesic substance, remained on the plate at 52° C.; the longest residence time of an animal on the plate was 35 seconds. This time limit (or cut off) (35 s) was determined by the average of three measurements of latency control values, obtained for each animal multiplied by three, to prevent any kind of tissue injury on the footpad of animals's paw due to long permanence on the heated surface. The protocol consisted in the intraperitoneal (ip) injection of the selected compounds of the present invention at a dose of 32.25 μmol/kg. The antinociceptive activity was evaluated at intervals of 10 minutes until effect completely disappear and, compared to morphine sulfate ([…]) at the same dose of 32.25 μmoles/kg (12.2 mg/kg). The investigated parameter is the latency of reflex to paw withdrawal in response to thermal stimulus. The results were expressed as percentage of AA, which was calculated according to Equation 1 for each experiment.

[5] = T 15 min after ip administration, 32.25 μmol/kg
[6] = T 30 min after ip administration, 32.25 μmol/kg (diazepam 2 mg/kg)
[7] = T 60 min after ip administration, 32.25 μmol/kg (diazepam 2 mg/kg)
[8] = T 120 min after ip administration, 32.25 μmol/kg (diazepam 2 mg/kg)

Compound | effect on thermal hyperalgesia after treatment interruption (rats subjected to SNL [1]; after 7 days of 32.25 μmol/kg ip) | paw withdrawal latency, thermal hyperalgesia (rats subjected to SNL [1]) | reversal of hyperalgesia signs associated with neuropathic pain (rats subjected to SNL [1]) | animal residence time on the rotational cylinder compared to controls (Swiss-type male mice; 32.25 μmol/kg) | Mice residence time on the rotational cylinder (Swiss-type male mice; [5]) [s] | Mice residence time on the rotational cylinder (Swiss-type male mice; [6]) [s] | Mice residence time on the rotational cylinder (Swiss-type male mice; [7]) [s] | Mice residence time on the rotational cylinder (Swiss-type male mice; [8]) [s] | reversal of allodynia signs associated with neuropathic pain (rats subjected to SNL [2]) | side effects compared to morphine (Swiss mice [3]) | antinociceptive activity (AA), hot plate (Swiss mice [4]) | paw withdrawal threshold, mechanical allodynia (rats subjected to SNL [2]; after 3 days of treatment, 32.25 μmol/kg ip, p<0.05)
Cl.OC1(c2ccc(Cl)cc2)CCN(CCc2conc2-c2ccc(F)cc2)CC1 [C15, 4-(4-chlorophenyl)-1-{2-[3-(4-fluorophenyl)-1,2-oxazol-4-yl]ethyl}piperidin-4-ol hydrochloride] | maintained for 1 day after treatment interruption | statistically significant antinociceptive effect | effective in reverse the hyperalgesia and allodynia signs | equal to the time observed for the negative control, and significantly higher than the time observed for the control amitriptyline hydrochloride | 180.0 | 179.0 | 179.2 | 180.0 | effective in reverse the hyperalgesia and allodynia signs | no side effects of conventional morphine | exhibit antinociceptive activity of intensity and kinetics similar to morphine sulfate | 
CN1CCN(CCc2c[nH]nc2-c2ccc(F)cc2)CC1.Cl.Cl.Cl.O.O [C11, 1-{2-[3-(4-fluorophenyl)-1H-pyrazol-4-yl]ethyl}-4-methylpiperazine trihydrochloride dihydrate] |  | statistically significant antinociceptive effect | effective in reverse the hyperalgesia and allodynia signs | equal to the time observed for the negative control, and significantly higher than the time observed for the control amitriptyline hydrochloride | 180.0 | 177.0 | 178.5 | 176.7 | effective in reverse the hyperalgesia and allodynia signs | no side effects of conventional morphine | exhibit antinociceptive activity of intensity and kinetics similar to morphine sulfate | significant (p<0.05) paw withdrawal threshold
